Test results from publication PMC7700175, “(E)-1-(Furan-2-yl)-(substituted phenyl)prop-2-en-1-one Derivatives as Tyrosinase Inhibitors and Melanogenesis Inhibition: An In Vitro and In Silico Study” (Molecules, 2020).
Read-outs that look alike come from different tables or passages of the source.

Tests used:
[1] = molecular target: T1, Mushroom tyrosinase (EC 1.14.18.1) (Agaricus bisporus, UniProt C7FF04); design: method as in PMID 30360412; settings: earlier results of the authors, cited from earlier work
T1 construct: purchased Sigma-Aldrich
T1 sequence (C7FF04 1-392): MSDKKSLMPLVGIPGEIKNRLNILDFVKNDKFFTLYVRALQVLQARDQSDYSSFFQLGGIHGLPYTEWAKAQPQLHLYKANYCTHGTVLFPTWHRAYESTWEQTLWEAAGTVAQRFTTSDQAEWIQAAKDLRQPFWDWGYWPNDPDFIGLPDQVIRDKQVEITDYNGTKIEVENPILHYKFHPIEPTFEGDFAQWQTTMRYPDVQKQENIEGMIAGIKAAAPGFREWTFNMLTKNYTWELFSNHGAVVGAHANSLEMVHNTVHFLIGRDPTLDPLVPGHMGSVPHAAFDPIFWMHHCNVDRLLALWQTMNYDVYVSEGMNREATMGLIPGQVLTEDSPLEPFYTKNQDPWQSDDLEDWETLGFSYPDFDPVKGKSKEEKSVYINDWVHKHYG

mushroom tyrosinase = molecular target: T2, mushroom tyrosinase (Agaricus bisporus, UniProt C7FF04); settings: reported inhibitor type of mushroom tyrosinase; cited from earlier work
T2 construct: purchased Sigma-Aldrich
T2 sequence (C7FF04 1-392): as above

[2] = molecular target: T1, Mushroom tyrosinase (EC 1.14.18.1); test: Mushroom tyrosinase inhibition assay (L-tyrosine or L-DOPA as substrate); format: biochemical
Method: In order to evaluate the inhibitory effects of synthesized furan chalcone derivatives on the enzyme activity, tested compounds were subjected to a mushroom tyrosinase inhibition assay with monophenolase (L-tyrosine) or diphenolase (L-3,4-dihydroxyphenyl-alanine; L-DOPA) as the substrates.
Mushroom tyrosinase inhibition was determined following our previously reported methods. All experiments were done in triplicate. […] The measurement was completed in triplicate for each concentration and averaged. The IC50 values were determined by interpolation of the dose-inhibition % curves.

[3] = IC50 (μM) b, L-DOPA as substrate (diphenolase), mean ± SEM of triplicate
[4] = L-DOPA as substrate (diphenolase), mean ± SEM of triplicate, read-out: IC50 (μM) b
[5] = L-tyrosine as substrate (monophenolase), mean ± SEM of triplicate, read-out: IC50 (μM) a

Compound: O=C(/C=C/c1cccs1)c1ccc(O)cc1O [(E)-2,4-dihydroxyphenyl-(thiophen-2-yl)prop-2-en-1-one]
- IC50 ([1]; diphenolase): 0.93 µM
- IC50 ([1]; monophenolase): 0.013 µM

Compound: O=C(O)/C=C/c1ccccc1 [Cinnamic acid, reference compound]
- inhibition type (mushroom tyrosinase): mixed-type
- IC50 [2]: > 200 µM
- IC50 [2, 3]: > 200 µM

Compound: O=C(/C=C/c1ccc(O)cc1)c1ccco1 [Compound 1, (E)-1-(Furan-2-yl)-3-(4-hydroxyphenyl)prop-2-en-1-one]
- IC50 [2, 4]: > 200 µM
- IC50 [2, 5]: 28.9 ± 1.21 µM

Compound: O=C(/C=C/c1ccc(O)c(O)c1)c1ccco1 [Compound 2, (E)-3-(3,4-Dihydroxyphenyl)-1-(furan-2-yl)prop-2-en-1-one]
- IC50 [2, 4]: 24.9 ± 3.25 µM
- IC50 [2, 5]: 84.9 ± 3.79 µM

Compound: COc1cc(/C=C/C(=O)c2ccco2)ccc1O [Compound 3, (E)-1-(Furan-2-yl)-3-(4-hydroxy-3-methoxyphenyl)prop-2-en-1-one]
- IC50 [2, 4]: > 200 µM
- IC50 [2, 5]: > 200 µM

Compound: COc1ccc(/C=C/C(=O)c2ccco2)cc1O [Compound 4, (E)-1-(Furan-2-yl)-3-(3-hydroxy-4-methoxyphenyl)prop-2-en-1-one]
- IC50 [2, 4]: 37.4 ± 4.89 µM
- IC50 [2, 5]: 13.6 ± 3.74 µM

Compound: COc1cc(/C=C/C(=O)c2ccco2)cc(OC)c1O [Compound 5, (E)-1-(Furan-2-yl)-3-(4-hydroxy-3,5-dimethoxyphenyl)prop-2-en-1-one]
- IC50 [2, 4]: > 200 µM
- IC50 [2, 5]: > 200 µM

Compound: O=C(/C=C/c1ccc(O)c(Br)c1)c1ccco1 [Compound 6, (E)-3-(3-Bromo-4-hydroxyphenyl)-1-(furan-2-yl)prop-2-en-1-one]
- IC50 [2, 4]: > 200 µM
- IC50 [2, 5]: 51.2 ± 3.73 µM

Compound: O=C(/C=C/c1cc(Br)c(O)c(Br)c1)c1ccco1 [Compound 7, (E)-3-(3,5-Dibromo-4-hydroxyphenyl)-1-(furan-2-yl)prop-2-en-1-one]
- IC50 [2, 4]: 27.2 ± 0.38 µM
- IC50 [2, 5]: > 200 µM

Compound: O=C(O)c1ccccc1C(=O)O [Phthalic acid, reference compound]
- inhibition type (mushroom tyrosinase): mixed-type
- IC50 [2]: > 200 µM
- IC50 [2, 3]: > 200 µM
